Values joined by “and” are separate entries in the source; they are usually repeats but may differ in a detail not shown here. Equal entries are not always repeated.
How the values were obtained:
Genome polyprotein [1] = biological target: T1, Genome polyprotein (dengue virus type 2, UniProt P29990); assay type: functional, Thailand/16681/1984
Genome polyprotein [2] = biological target: T1, Genome polyprotein; assay type: functional, Thailand/16681/1984; remark: listed apart in the source

T1 sequence (P29990 1346-1475 limits assumed): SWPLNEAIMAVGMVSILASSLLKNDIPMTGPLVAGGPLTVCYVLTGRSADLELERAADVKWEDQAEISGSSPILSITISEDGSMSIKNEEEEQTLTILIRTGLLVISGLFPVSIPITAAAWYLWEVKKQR
T1 sequence (P29990 1476-2093 limits assumed): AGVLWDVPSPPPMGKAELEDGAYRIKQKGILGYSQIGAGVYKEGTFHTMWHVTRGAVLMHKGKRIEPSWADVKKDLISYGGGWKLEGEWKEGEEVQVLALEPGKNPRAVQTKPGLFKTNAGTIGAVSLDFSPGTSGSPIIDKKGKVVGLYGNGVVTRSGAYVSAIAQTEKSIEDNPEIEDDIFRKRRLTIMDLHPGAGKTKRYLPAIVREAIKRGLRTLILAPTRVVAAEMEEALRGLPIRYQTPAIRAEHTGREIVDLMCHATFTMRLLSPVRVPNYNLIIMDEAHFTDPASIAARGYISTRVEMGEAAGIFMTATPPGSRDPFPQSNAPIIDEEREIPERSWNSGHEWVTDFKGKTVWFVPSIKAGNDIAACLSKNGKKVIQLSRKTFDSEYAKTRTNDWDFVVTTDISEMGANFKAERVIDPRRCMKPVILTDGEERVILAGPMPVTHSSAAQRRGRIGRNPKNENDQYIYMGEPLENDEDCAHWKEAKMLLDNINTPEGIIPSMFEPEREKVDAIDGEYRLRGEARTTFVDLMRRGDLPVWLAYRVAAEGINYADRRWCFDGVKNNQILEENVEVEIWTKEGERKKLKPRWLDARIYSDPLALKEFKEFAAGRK

Structure (SMILES)	IC50 (Genome polyprotein [1])	IC50 (Genome polyprotein [2])
CN1CCC([C@H]2CCCN(C(=O)Nc3ccc4c(c3)CNC4)C2)CC1	> 100 µM	> 99.5 µM
COCCNC(=O)[C@H](Nc1ccc2c(c1)CNC2)c1cc(Cl)cc(C2CC2)c1	> 100 µM	> 99.5 µM
O=C(NCC(F)F)[C@H](Nc1ccc2c(c1)CNC2)c1cc(Cl)cc(C2CC2)c1	> 100 µM	> 99.5 µM
Cc1cc(C(=O)Nc2ccc3c(c2)CNC3)c2cnn(C)c2n1	> 100 µM	> 99.5 µM
Cc1cc(NC(=O)c2cc(Cl)cc3[nH]ncc23)ccc1N1CCNCC1	> 100 µM	83.5 µM
O=C(NC[C@H]1CCCO1)[C@H](Nc1ccc2c(c1)CNC2)c1cc(Cl)cc2[nH]ncc12	> 100 µM	> 99.5 µM
Cc1ccc(C)n1-c1ccc(Cl)cc1C(=O)Nc1ccc2c(c1)CNC2	> 100 µM	> 99.5 µM
Cc1cccc(CNc2ccc(Cl)cc2C(=O)Nc2ccc3c(c2)CNC3)n1	> 100 µM	> 99.5 µM
N#C[C@H](Nc1ccc2c(c1)CNC2)c1cccc2[nH]ncc12	> 100 µM	> 99.5 µM
N#Cc1cc(Cl)cc(C(=O)Nc2ccc3c(c2)CNC3)c1	> 100 µM	> 99.5 µM
Cn1cc2cc(Cl)cc(C(=O)Nc3ccc4c(c3)CNC4)c2n1	69.9 µM and > 100 µM	> 99.5 µM
O=C(Nc1ccc2c(c1)CNC2)c1cc(Cl)cc2nccnc12	77.9 µM	73.5 µM
O=C(Nc1ccc2c(c1)CNC2)N1CCC2(C1)CC(F)(F)C2	> 100 µM	> 99.5 µM
O=C(Nc1ccc2c(c1)CNC2)c1nc2ccccc2s1	87.8 µM	> 99.5 µM
Cn1nc(C2CC2)cc1C(=O)Nc1cc(CCCN)ccn1	> 100 µM	> 99.5 µM
Cc1cc(C(F)(F)F)cc(C(=O)Nc2ccc3c(c2)CNC3)n1	> 100 µM	48.6 µM
NS(=O)(=O)c1ccc(C(F)F)cc1-c1ccc2[nH]c(C(=O)O)cc2c1	> 100 µM	> 99.5 µM
CCc1ncc(Cl)cc1C(=O)Nc1ccc2c(c1)CNC2	> 100 µM	> 99.5 µM
N#CCCNC(=O)[C@H](Nc1ccc2c(c1)CNC2)c1cc(Cl)cc(C2CC2)c1	> 100 µM	> 99.5 µM
O=C(Nc1ccc2c(c1)CNC2)[C@H]1CCCc2[nH]ncc21	> 100 µM	> 99.5 µM
O=C(Nc1ccc2c(c1)CNC2)c1cc(Br)cc2[nH]c([C@H]3CCOC3)nc12	> 100 µM	98.5 µM
Cc1nc(C2CC2)sc1C(=O)Nc1cc(CCCN)ccn1	> 100 µM	> 99.5 µM

Structure (SMILES)	IC50 (Genome polyprotein [1])	IC50 (Genome polyprotein [2])
CNC(=O)[C@H](Nc1ccc2c(c1)CNC2)c1cc(Cl)cc(C2CC2)c1	> 100 µM	> 99.5 µM
O=C(Nc1ccc2c(c1)CNC2)c1c(Br)cc(Cl)c2[nH]ncc12	> 100 µM	> 99.5 µM
O=C(Nc1ccc2c(c1)CNC2)c1c(Br)ccc2[nH]ncc12	> 100 µM	> 99.5 µM
N#C[C@]1(Nc2ccc3c(c2)CNC3)C(=O)Nc2ccc(Cl)cc21	> 100 µM	> 99.5 µM
N#C[C@H](Nc1ccc2c(c1)CNC2)c1cc(Cl)cc(C2CC2)c1	> 100 µM	> 99.5 µM
O=C(Nc1ccc2c(c1)CNC2)c1nccc2[nH]ncc12	> 100 µM	> 99.5 µM
CC(C)(C)OC(=O)N1Cc2ccc(NC(=O)c3cc(Cl)cc4[nH]ncc34)cc2C1	> 100 µM	> 99.5 µM
CC(C)(C)OC(=O)Cc1cc(CN)cc(NC(=O)c2cc(Cl)cc(NC(=O)OCc3ccccc3)c2)c1	> 100 µM	> 99.5 µM
Cn1nc(C(=O)Nc2cc(CCCN)ccn2)cc1C1CC1	> 100 µM	> 99.5 µM
N#Cc1cc(Cl)cc([C@H](C#N)Nc2ccc3c(c2)CNC3)c1	> 100 µM	> 99.5 µM
Cc1cnc([C@H]2CCCN(C(=O)Nc3ccc4c(c3)CNC4)C2)s1	> 100 µM	> 99.5 µM
CC(C)c1ccc(Cl)cc1C(=O)Nc1ccc2c(c1)CNC2	> 100 µM	> 99.5 µM
CCCN1C(=O)[C@](Nc2ccc3c(c2)CNC3)(C(N)=O)c2cc(Cl)ccc21	> 100 µM	> 99.5 µM
Clc1cc(CNc2ccc3c(c2)CNC3)c2cn[nH]c2c1	> 100 µM	18.9 µM and 54.9 µM
Cc1c(C(=O)Nc2cc(CCCN)ccn2)cnn1C1CC1	> 100 µM	> 99.5 µM
O=C(Nc1ccc2c(c1)CNC2)c1cc(Cl)ccc1OC1CCCC1	> 100 µM	> 99.5 µM
NS(=O)(=O)c1cc(Cl)cc(C(=O)Nc2ccc3c(c2)CNC3)c1	> 100 µM	> 99.5 µM
NCc1cc(C(F)(F)F)cc(-c2ccc3[nH]c(C(=O)O)cc3c2)n1	> 100 µM	> 99.5 µM
O=C(NC1CCOCC1)[C@H](Nc1ccc2c(c1)CNC2)c1cc(Cl)cc(C2CC2)c1	> 100 µM	> 99.5 µM and 37.7 µM and 56.5 µM
O=C(Nc1ccc2c(c1)OCCNC2)c1cc(Cl)cc2[nH]ncc12	> 100 µM	> 99.5 µM
CNC(=O)[C@]1(Nc2ccc3c(c2)CNC3)CCc2ccccc21	> 100 µM	> 99.5 µM
Cn1cc(CNC(=O)[C@H](Nc2ccc3c(c2)CNC3)c2cc(Cl)cc(C3CC3)c2)cn1	> 100 µM	> 99.5 µM

Structure (SMILES)	IC50 (Genome polyprotein [1])	IC50 (Genome polyprotein [2])
C(#C[C@H](Nc1ccc2c(c1)CNC2)c1cccc2[nH]ncc12)c1ccccc1	> 100 µM	> 99.5 µM
O=C(Nc1ccc2c(c1)CNC2)c1cc2ccccc2[nH]1	> 100 µM	> 99.5 µM
CCc1cc(Cl)cc(C(=O)Nc2ccc3c(c2)CNC3)c1	> 100 µM	> 99.5 µM
O=C(O)c1cc2cc(-c3cc(Cl)cn4ncnc34)ccc2[nH]1	> 100 µM	> 99.5 µM
Cn1cc2cc(C#N)cc(-c3ccc4[nH]c(C(=O)O)cc4c3)c2n1	> 100 µM	> 99.5 µM
Cn1cc(CCc2nc3c(C(=O)Nc4ccc5c(c4)CNC5)cc(Cl)cc3[nH]2)cn1	19.4 µM and 21.6 µM	32.5 µM
Cn1cnc2nc(Cl)cc(C(=O)Nc3ccc4c(c3)CNC4)c21	> 100 µM	> 99.5 µM
O=C(Nc1cnc2c(c1)CNCC2)c1cc(Cl)cc2[nH]ncc12	> 100 µM	> 99.5 µM
C[C@H](NC(=O)c1cc(Cl)cc2[nH]ncc12)c1ccc2c(c1)CNC2	> 100 µM	> 99.5 µM
O=C(Nc1ccc2c(c1)CNC2)c1cc(F)cc2[nH]ncc12	37.8 µM and 24.3 µM	59.5 µM
NCCCc1ccnc(NC(=O)c2cc(C3CC3)no2)c1	> 100 µM	> 99.5 µM
O=C(Nc1ccc2c(c1)CNC2)c1cc(Cl)ccc1OCC(F)(F)F	> 100 µM	> 99.5 µM
O=C(Nc1ccc2c(c1)CNC2)c1cc(Cl)nc2[nH]ncc12	> 100 µM	> 99.5 µM
Cn1ncc2c(C(=O)Nc3ccc4c(c3)CNC4)cc(-c3cccnc3)nc21	> 100 µM	92.7 µM
Cc1c(C(=O)Nc2cc(CN(C)C)ccn2)cc(C2CC2)n1C	> 100 µM	> 99.5 µM
O=C(Nc1ccc2c(c1)CNCCO2)c1cc(Cl)cc2[nH]ncc12	> 100 µM	> 99.5 µM
O=C(NC[C@H]1CCCO1)[C@H](Nc1ccc2c(c1)CNC2)c1cc(Cl)cc(C2CC2)c1	> 100 µM	> 99.5 µM
NCc1cc(-c2ccncc2)cc([C@@H]2C[C@H]2c2cc(Cl)cc(NC(=O)OCc3ccccc3)c2)c1	> 100 µM	> 99.5 µM
CCn1ncc2c(C(=O)Nc3ccc4c(c3)CNC4)cc(C)nc21	> 100 µM	> 99.5 µM
NCCCc1ccnc(NC(=O)c2cnn3c2CCC3)c1	> 100 µM	> 99.5 µM
Cc1ccc2[nH]ncc2c1C(=O)Nc1ccc2c(c1)CNC2	> 100 µM	> 99.5 µM
CCS(=O)(=O)c1ccc(Cl)cc1C(=O)Nc1ccc2c(c1)CNC2	> 100 µM	> 99.5 µM

Structure (SMILES)	IC50 (Genome polyprotein [1])	IC50 (Genome polyprotein [2])
O=C(NCC1CCOCC1)[C@H](Nc1ccc2c(c1)CNC2)c1cc(Cl)cc2[nH]ncc12	> 100 µM	> 99.5 µM
CNC(=O)c1ccnc(NC(=O)c2cc(C3CC3)n(C)c2C)c1	> 100 µM	> 99.5 µM
O=C(Nc1ccc2c(c1)CNC2)c1ccc2scnc2c1	41.5 µM and 45.1 µM	23.2 µM and 10.6 µM
NCc1cc(NC(=O)c2cc(Cl)cc(NC(=O)OCc3ccccc3)c2)cc(-c2ccc(OCC(=O)O)nc2)c1	> 100 µM	> 99.5 µM
O=C(Nc1ccc2c[nH]nc2c1)c1cc(Cl)cc2[nH]ncc12	> 100 µM	> 99.5 µM
Cc1c(C(=O)Nc2cc([C@H]3CCOC3)ccn2)cc(C2CC2)n1C	> 100 µM	> 99.5 µM
O=C(Nc1ccc2c(c1)CNC2)c1ccc(F)c2[nH]ncc12	> 100 µM	69.7 µM
O=C(NCc1ccc(F)cc1)[C@H](Nc1ccc2c(c1)CNC2)c1cc(Cl)cc2[nH]ncc12	> 100 µM	> 99.5 µM
COc1ccc(CN2Cc3cc(NC(=O)c4cc(Cl)cc5[nH]ncc45)cc(Br)c3C2)cc1	> 100 µM	> 99.5 µM
O=C(O)c1cc2cc(-c3cc(Cl)cc4c3O[C@H](CO)C4)ccc2[nH]1	> 100 µM	> 99.5 µM
O=C(Nc1cccc2c1CNC2)c1cc(Cl)cc2[nH]ncc12	> 100 µM	> 99.5 µM
COCCN(C)Cc1ccnc(NC(=O)c2cc(C3CC3)n(C)c2C)c1	> 100 µM	> 99.5 µM
Cc1c(C(=O)Nc2ccc3c(c2)CNC3)cc(C2CC2)n1C	> 100 µM	> 99.5 µM
O=C(Nc1ccc2c(c1)CNC2)N1CC(F)(F)CC2(CCC2)C1	> 100 µM	> 99.5 µM
CCn1c(C)cc(C(=O)Nc2cc(CCCN)ccn2)c1C	> 100 µM	> 99.5 µM
NCCCc1ccnc(NC(=O)c2nnc(C3CC3)s2)c1	> 100 µM	> 99.5 µM
Cc1ccc(C(=O)Nc2ccc3c(c2)CNC3)c2[nH]ncc12	> 100 µM	> 99.5 µM
N#C[C@H](Nc1ccc2c(c1)CNC2)c1cccc2c1CCNC2=O	> 100 µM	> 99.5 µM
Cc1c(C(=O)Nc2ncc3c(c2C#N)CCOC3)cc(C2CC2)n1C	> 100 µM	> 99.5 µM
CC1([C@H]2CCCN(C(=O)Nc3ccc4c(c3)CNC4)C2)CC1	> 100 µM	> 99.5 µM
O=C(Nc1ccc2c(c1)CNC2)c1cc(Cl)ccc1-n1ccnc1	> 100 µM	> 99.5 µM

Reference: ChEMBL document CHEMBL5604063, “ASAP - DENV-2 NS2B-NS3 protease fluorescence dose response” (2024)
